Source: PubChem BioAssay (NCI)
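48-hour exposure; five concentrations; linearly interpolated endpoints. GI50 marks 50% less growth. TGI is the concentration that stops growth completely.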

What was measured:
Assay in all cases: NCI anticancer screen, dose series, 48 h
HL-60(TB) leukemia = tested on: HL-60(TB) leukemia
HT29 colon = tested on: HT29 colon
LOX IMVI melanoma = tested on: LOX IMVI melanoma
MALME-3M melanoma = tested on: MALME-3M melanoma
MDA-MB-231 breast = tested on: MDA-MB-231 breast
NCI-H460 lung = tested on: NCI-H460 lung
RPMI-8226 leukemia = tested on: RPMI-8226 leukemia
SF-268 CNS = tested on: SF-268 CNS
SF-295 CNS = tested on: SF-295 CNS
SK-MEL-5 melanoma = tested on: SK-MEL-5 melanoma

**Q.** `CCOC(=O)/C(=C\c1ccc(C#N)cc1)C(C)=O` was tested. Which TGI (HL-60(TB) leukemia) did it give?
**A.** > 100 µM

**Q.** What about the TGI (HT29 colon) of the same compound?
**A.** > 100 µM

**Q.** What about the TGI (LOX IMVI melanoma) of the same compound?
**A.** 34.5 µM

**Q.** What about the TGI (MALME-3M melanoma) of the same compound?
**A.** 31.5 µM

**Q.** And the TGI (MDA-MB-231 breast)?
**A.** 33.3 µM

**Q.** And the TGI (NCI-H460 lung)?
**A.** > 100 µM

**Q.** And the TGI (RPMI-8226 leukemia)?
**A.** 54.5 µM

**Q.** What about the TGI (SF-268 CNS) of the same compound?
**A.** 87.2 µM

**Q.** And the TGI (SF-295 CNS)?
**A.** > 100 µM

**Q.** What about the TGI (SK-MEL-5 melanoma) of the same compound?
**A.** 41 µM

**Q.** What does the source list for `CC(NCCC(=O)N(CCC(=O)N(CCC(=O)N(CCC(=O)N(CCC(=O)N(CCC(=O)N(CCC(=O)N(CCC(=O)N(CCC(=O)N(CCC(=O)O)[C@H](C)c1ccccc1)[C@H](C)c1ccccc1)[C@H](C)c1ccccc1)[C@H](C)c1ccccc1)[C@H](C)c1ccccc1)[C@H](C)c1ccccc1)[C@H](C)c1ccccc1)[C@H](C)c1ccccc1)[C@H](C)c1ccccc1)c1ccccc1` (stereo partly drawn)?
**A.** GI50 (HL-60(TB) leukemia): 2.44 µM; TGI (HL-60(TB) leukemia): 13.9 µM; GI50 (HT29 colon): 1.6 µM; TGI (HT29 colon): 5.37 µM; GI50 (LOX IMVI melanoma): 1.17 µM; TGI (LOX IMVI melanoma): 2.37 µM; GI50 (MALME-3M melanoma): 2.04 µM; TGI (MALME-3M melanoma): 5.91 µM; GI50 (MDA-MB-231 breast): 1.44 µM; TGI (MDA-MB-231 breast): 4.39 µM; GI50 (NCI-H460 lung): 2.05 µM; TGI (NCI-H460 lung): 6.64 µM; GI50 (RPMI-8226 leukemia): 1.1 µM; TGI (RPMI-8226 leukemia): 4.08 µM; GI50 (SF-268 CNS): 2.45 µM; TGI (SF-268 CNS): > 38.7 µM; GI50 (SF-295 CNS): 1.92 µM; TGI (SF-295 CNS): 5.55 µM; GI50 (SK-MEL-5 melanoma): 1.16 µM; TGI (SK-MEL-5 melanoma): 2.36 µM

**Q.** Which GI50 (HL-60(TB) leukemia) does the source give for `COC(=O)C1=C(C(=O)OC)SC(=C(Cl)C(=S)Nc2ccccc2O)S1` here?
**A.** 16.6 µM

**Q.** What about the TGI (HL-60(TB) leukemia) of the same compound?
**A.** > 50 µM

**Q.** And the GI50 (HT29 colon)?
**A.** 30.2 µM

**Q.** And the TGI (HT29 colon)?
**A.** > 50 µM

**Q.** What about the GI50 (LOX IMVI melanoma) of the same compound?
**A.** 12.9 µM

**Q.** What about the TGI (LOX IMVI melanoma) of the same compound?
**A.** 24.5 µM

**Q.** And the GI50 (MALME-3M melanoma)?
**A.** 21.7 µM

**Q.** And the TGI (MALME-3M melanoma)?
**A.** > 50 µM

**Q.** What about the GI50 (MDA-MB-231 breast) of the same compound?
**A.** 10.6 µM

**Q.** And the TGI (MDA-MB-231 breast)?
**A.** 25.9 µM

**Q.** What about the GI50 (NCI-H460 lung) of the same compound?
**A.** 11.5 µM

**Q.** What about the TGI (NCI-H460 lung) of the same compound?
**A.** > 50 µM

**Q.** What about the GI50 (RPMI-8226 leukemia) of the same compound?
**A.** 33 µM

**Q.** And the TGI (RPMI-8226 leukemia)?
**A.** > 50 µM

**Q.** What about the GI50 (SF-268 CNS) of the same compound?
**A.** 10.2 µM

**Q.** And the TGI (SF-268 CNS)?
**A.** 23.6 µM

**Q.** What about the GI50 (SF-295 CNS) of the same compound?
**A.** 6.57 µM

**Q.** What about the TGI (SF-295 CNS) of the same compound?
**A.** 24.9 µM

**Q.** What about the GI50 (SK-MEL-5 melanoma) of the same compound?
**A.** 19.1 µM

**Q.** And the TGI (SK-MEL-5 melanoma)?
**A.** > 50 µM

**Q.** With `COc1cc(Cl)cc(-c2nn(-c3cccc(NC(=O)Nc4cc(C(F)(F)F)cc(C(F)(F)F)c4)c3)cc2-c2ccncc2)c1` as the compound, how does the GI50 (HL-60(TB) leukemia) read?
**A.** 0.32 µM

**Q.** What about the TGI (HL-60(TB) leukemia) of the same compound?
**A.** 2.49 µM

**Q.** And the GI50 (HT29 colon)?
**A.** 0.443 µM

**Q.** What about the TGI (HT29 colon) of the same compound?
**A.** 2.38 µM

**Q.** What about the GI50 (LOX IMVI melanoma) of the same compound?
**A.** 0.513 µM

**Q.** And the TGI (LOX IMVI melanoma)?
**A.** 2.29 µM

**Q.** What about the GI50 (MALME-3M melanoma) of the same compound?
**A.** 0.73 µM

**Q.** What about the TGI (MALME-3M melanoma) of the same compound?
**A.** 4.77 µM

**Q.** What about the GI50 (MDA-MB-231 breast) of the same compound?
**A.** 0.726 µM

**Q.** What about the TGI (MDA-MB-231 breast) of the same compound?
**A.** 2.26 µM

**Q.** And the GI50 (NCI-H460 lung)?
**A.** 0.374 µM

**Q.** What about the TGI (NCI-H460 lung) of the same compound?
**A.** 1.71 µM

**Q.** What about the GI50 (RPMI-8226 leukemia) of the same compound?
**A.** 0.288 µM

**Q.** And the TGI (RPMI-8226 leukemia)?
**A.** 1.03 µM

**Q.** What about the GI50 (SF-268 CNS) of the same compound?
**A.** 0.645 µM

**Q.** What about the TGI (SF-268 CNS) of the same compound?
**A.** 4.35 µM

**Q.** And the GI50 (SF-295 CNS)?
**A.** 0.622 µM

**Q.** And the TGI (SF-295 CNS)?
**A.** 2.25 µM

**Q.** What about the GI50 (SK-MEL-5 melanoma) of the same compound?
**A.** 1.09 µM

**Q.** And the TGI (SK-MEL-5 melanoma)?
**A.** 2.33 µM

**Q.** Which TGI (HL-60(TB) leukemia) does the source give for `CN1C(=O)C(CC(=O)O)NC1=S` (stereo not drawn) here?
**A.** > 100 µM

**Q.** And the TGI (HT29 colon)?
**A.** > 100 µM

**Q.** What about the TGI (LOX IMVI melanoma) of the same compound?
**A.** > 100 µM

**Q.** What about the TGI (MALME-3M melanoma) of the same compound?
**A.** > 100 µM

**Q.** And the TGI (MDA-MB-231 breast)?
**A.** > 100 µM

**Q.** What about the TGI (NCI-H460 lung) of the same compound?
**A.** > 100 µM

**Q.** And the TGI (RPMI-8226 leukemia)?
**A.** > 100 µM

**Q.** And the TGI (SF-268 CNS)?
**A.** > 100 µM

**Q.** And the TGI (SF-295 CNS)?
**A.** > 100 µM

**Q.** And the TGI (SK-MEL-5 melanoma)?
**A.** > 100 µM

**Q.** How did the GI50 (HL-60(TB) leukemia) turn out when `O=C(Nc1ccc2[nH]c(=S)sc2c1)Nc1ccccc1F` was run?
**A.** 23.9 µM

**Q.** And the TGI (HL-60(TB) leukemia)?
**A.** 93.5 µM

**Q.** And the GI50 (HT29 colon)?
**A.** 44.3 µM

**Q.** And the TGI (HT29 colon)?
**A.** > 100 µM

**Q.** And the GI50 (LOX IMVI melanoma)?
**A.** 16.3 µM

**Q.** What about the TGI (LOX IMVI melanoma) of the same compound?
**A.** > 100 µM

**Q.** What about the GI50 (MALME-3M melanoma) of the same compound?
**A.** 18.4 µM

**Q.** And the TGI (MALME-3M melanoma)?
**A.** 64.2 µM

**Q.** What about the GI50 (MDA-MB-231 breast) of the same compound?
**A.** 23.1 µM

**Q.** And the TGI (MDA-MB-231 breast)?
**A.** > 100 µM

**Q.** And the GI50 (NCI-H460 lung)?
**A.** 38 µM

**Q.** What about the TGI (NCI-H460 lung) of the same compound?
**A.** > 100 µM

**Q.** What about the GI50 (RPMI-8226 leukemia) of the same compound?
**A.** 18 µM

**Q.** And the TGI (RPMI-8226 leukemia)?
**A.** > 100 µM

**Q.** What about the GI50 (SF-268 CNS) of the same compound?
**A.** 38.2 µM

**Q.** What about the TGI (SF-268 CNS) of the same compound?
**A.** > 100 µM

**Q.** And the GI50 (SF-295 CNS)?
**A.** 28.8 µM

**Q.** What about the TGI (SF-295 CNS) of the same compound?
**A.** > 100 µM

**Q.** And the GI50 (SK-MEL-5 melanoma)?
**A.** 17.3 µM

**Q.** What about the TGI (SK-MEL-5 melanoma) of the same compound?
**A.** 84.1 µM

**Q.** How did the TGI (HL-60(TB) leukemia) turn out when `O=C(O)c1cc(-c2ccncc2)nc2ccccc12` was run?
**A.** > 100 µM

**Q.** What about the TGI (HT29 colon) of the same compound?
**A.** > 100 µM

**Q.** And the TGI (LOX IMVI melanoma)?
**A.** > 100 µM

**Q.** And the TGI (MALME-3M melanoma)?
**A.** > 100 µM

**Q.** And the TGI (MDA-MB-231 breast)?
**A.** > 100 µM

**Q.** And the TGI (NCI-H460 lung)?
**A.** > 100 µM

**Q.** What about the TGI (RPMI-8226 leukemia) of the same compound?
**A.** > 100 µM

**Q.** And the TGI (SF-268 CNS)?
**A.** > 100 µM

**Q.** And the TGI (SF-295 CNS)?
**A.** > 100 µM

**Q.** What about the TGI (SK-MEL-5 melanoma) of the same compound?
**A.** > 100 µM

**Q.** How did the TGI (HL-60(TB) leukemia) turn out when `O=C1C=CC[C@H](/C=C/c2ccccc2)O1` was run?
**A.** > 34 µM

**Q.** And the GI50 (HT29 colon)?
**A.** 1.88 µM

**Q.** And the TGI (HT29 colon)?
**A.** 23.9 µM

**Q.** And the GI50 (LOX IMVI melanoma)?
**A.** 1.7 µM

**Q.** What about the TGI (LOX IMVI melanoma) of the same compound?
**A.** 7.93 µM

**Q.** And the GI50 (MALME-3M melanoma)?
**A.** 18.5 µM

**Q.** And the TGI (MALME-3M melanoma)?
**A.** > 100 µM

**Q.** And the GI50 (MDA-MB-231 breast)?
**A.** 5.42 µM

**Q.** And the TGI (MDA-MB-231 breast)?
**A.** 32.4 µM

**Q.** And the GI50 (NCI-H460 lung)?
**A.** 1.53 µM

**Q.** What about the TGI (NCI-H460 lung) of the same compound?
**A.** 14.3 µM

**Q.** What about the GI50 (RPMI-8226 leukemia) of the same compound?
**A.** 0.742 µM

**Q.** What about the GI50 (SF-268 CNS) of the same compound?
**A.** 2.44 µM

**Q.** And the TGI (SF-268 CNS)?
**A.** 16.6 µM

**Q.** What about the GI50 (SF-295 CNS) of the same compound?
**A.** 2.54 µM

**Q.** What about the TGI (SF-295 CNS) of the same compound?
**A.** > 40.9 µM

**Q.** And the GI50 (SK-MEL-5 melanoma)?
**A.** 3.39 µM

**Q.** And the TGI (SK-MEL-5 melanoma)?
**A.** 16.6 µM
